{"source": "ChEMBL document CHEMBL5257050", "about": "“Structure Revisions of Phenolic Bisabolane Sesquiterpenes and a Ferroptosis Inhibitor from the Marine-Derived Fungus Aspergillus versicolor YPH93” (J Nat Prod, 2023)", "key": {"HT-1080 [1]": {"tested_on": "HT-1080", "experiment": "Cytotoxicity against human HT-1080 cells assessed as reduction in cell viability at 50 uM measured for 48 hrs by CCK-8 assay", "type": "functional, cell-based"}, "CCRF-CEM [2]": {"tested_on": "CCRF-CEM", "experiment": "Induction of necrosis in H2O2-induced human CCRF-CEM cells at 10 uM pretreated for 0.5 hrs followed by H2O2 stimulation by Cell-titer-glo assay", "type": "functional, cell-based"}, "[3]": {"experiment": "Antioxidant activity assessed as DPPH radical scavenging activity at 10 uM measured for 30 mins relative to control", "type": "functional"}, "CCRF-CEM [4]": {"tested_on": "CCRF-CEM", "experiment": "Anti-necroptosis activity against TNFalpha-induced human CCRF-CEM cells assessed as cell viability at 10 uM pretreated for 0.5 hrs followed by TNFalpha stimulation by Cell-titer-glo assay", "type": "functional, cell-based"}, "HT-1080 [5]": {"tested_on": "HT-1080", "experiment": "Anti-ferroptotic activity against erastin-induced ferroptosis in human HT-1080 cells assessed as cell viability at 10 uM pretreated for 0.5 hrs followed by erastin stimulation by Cell-titer-glo assay", "type": "functional", "conditions": "read-out: Activity"}, "HT-1080 [6]": {"tested_on": "HT-1080", "experiment": "Anti-ferroptotic activity against erastin/RSL3-induced ferroptosis in human HT-1080 cells assessed as cell viability at 1 uM pretreated for 0.5 hrs followed by erastin/RSL3 stimulation by Cell-titer-glo assay", "type": "functional, cell-based"}, "HT-1080 [7]": {"tested_on": "HT-1080", "experiment": "Anti-ferroptotic activity against RSL3-induced ferroptosis in human HT-1080 cells assessed as cell viability pretreated for 0.5 hrs followed by RSL3 stimulation by Cell-titer-glo assay", "type": "functional, cell-based"}, "HT-1080 [8]": {"tested_on": "HT-1080", "experiment": "Anti-ferroptotic activity against erastin-induced ferroptosis in human HT-1080 cells assessed as cell viability pretreated for 0.5 hrs followed by erastin stimulation by Cell-titer-glo assay", "type": "functional, cell-based"}, "CCRF-CEM [9]": {"tested_on": "CCRF-CEM", "experiment": "Anti-ferroptotic activity against RSL3-induced ferroptosis in human CCRF-CEM cells assessed as cell viability at 10 uM pretreated for 0.5 hrs followed by RSL3 stimulation by Cell-titer-glo assay", "type": "functional, cell-based"}, "HT-1080 [10]": {"tested_on": "HT-1080", "experiment": "Anti-ferroptotic activity against erastin/RSL3-induced ferroptosis in human HT-1080 cells assessed as cell viability at 10 uM pretreated for 0.5 hrs followed by erastin/RSL3 stimulation by Cell-titer-glo assay", "type": "functional, cell-based"}}, "note": "Calls of active or inactive are those of the source. The rule behind the calls is not given here."}
{"smiles": "CC1(C)O[C@@](C)(c2ccc(C(=O)O)cc2O)C[C@H](O)[C@@H]1O", "note": "(relative stereo)", "values": [{"measurement": "Activity", "setting": "HT-1080 [1]", "value": "inactive"}, {"measurement": "Activity", "setting": "CCRF-CEM [2]", "value": "inactive"}, {"measurement": "Activity", "setting": "[3]", "value": "Active"}, {"measurement": "Activity", "setting": "CCRF-CEM [4]", "value": "inactive"}]}
{"smiles": "CC(O)(CO)CCCC(C)(O)c1ccc(C(=O)O)cc1O", "note": "(stereo not given)", "values": [{"measurement": "Activity", "setting": "HT-1080 [1]", "value": "inactive"}, {"measurement": "Activity", "setting": "CCRF-CEM [2]", "value": "inactive"}, {"measurement": "Activity", "setting": "[3]", "value": "Active"}, {"measurement": "Activity", "setting": "CCRF-CEM [4]", "value": "inactive"}]}
{"smiles": "C[C@@]1(CO)CCC[C@](C)(c2ccc(C(=O)O)cc2O)O1", "note": "(relative stereo)", "values": [{"measurement": "Activity", "setting": "HT-1080 [1]", "value": "inactive"}, {"measurement": "Activity", "setting": "CCRF-CEM [2]", "value": "inactive"}, {"measurement": "Activity", "setting": "[3]", "value": "Active"}, {"measurement": "Activity", "setting": "CCRF-CEM [4]", "value": "inactive"}]}
{"smiles": "CC(C)(O)CCCC(C)(O)c1ccc(C(=O)O)cc1O", "note": "(stereo not given)", "values": [{"measurement": "Activity", "setting": "HT-1080 [1]", "value": "inactive"}, {"measurement": "Activity", "setting": "CCRF-CEM [2]", "value": "inactive"}, {"measurement": "Activity", "setting": "[3]", "value": "Active"}, {"measurement": "Activity", "setting": "CCRF-CEM [4]", "value": "inactive"}]}
{"smiles": "CC(=O)OC[C@@]1(C)CCC[C@@](C)(c2ccc(C(=O)O)cc2O)O1", "values": [{"measurement": "viability at 10 µM", "setting": "HT-1080 [5]", "value": 50, "unit": "%"}, {"measurement": "Activity", "setting": "HT-1080 [1]", "value": "inactive"}, {"measurement": "Activity", "setting": "CCRF-CEM [2]", "value": "inactive"}, {"measurement": "Activity", "setting": "[3]", "value": "Active"}, {"measurement": "Activity", "setting": "CCRF-CEM [4]", "value": "inactive"}]}
{"smiles": "C/C(=C/CCC(C)(C)O)c1ccc(C(=O)O)cc1O", "values": [{"measurement": "Activity", "setting": "HT-1080 [1]", "value": "inactive"}, {"measurement": "Activity", "setting": "CCRF-CEM [2]", "value": "inactive"}, {"measurement": "Activity", "setting": "[3]", "value": "Active"}, {"measurement": "Activity", "setting": "CCRF-CEM [4]", "value": "inactive"}]}
{"smiles": "C[C@]1(CO)CCC[C@](C)(c2ccc(C(=O)O)cc2O)O1", "values": [{"measurement": "Activity", "setting": "HT-1080 [1]", "value": "inactive"}, {"measurement": "Activity", "setting": "CCRF-CEM [2]", "value": "inactive"}, {"measurement": "Activity", "setting": "[3]", "value": "Active"}, {"measurement": "Activity", "setting": "CCRF-CEM [4]", "value": "inactive"}]}
{"smiles": "CC1(c2ccc(C(=O)O)cc2O)CCC(=O)O1", "note": "(stereo not given)", "values": [{"measurement": "Activity", "setting": "HT-1080 [1]", "value": "inactive"}, {"measurement": "Activity", "setting": "CCRF-CEM [2]", "value": "inactive"}, {"measurement": "Activity", "setting": "[3]", "value": "Active"}, {"measurement": "Activity", "setting": "CCRF-CEM [4]", "value": "inactive"}]}
{"smiles": "CC1(C)CCC[C@](C)(c2ccc(C(=O)O)cc2O)O1", "values": [{"measurement": "Activity", "setting": "HT-1080 [1]", "value": "inactive"}, {"measurement": "Activity", "setting": "CCRF-CEM [2]", "value": "inactive"}, {"measurement": "Activity", "setting": "[3]", "value": "Active"}, {"measurement": "Activity", "setting": "CCRF-CEM [4]", "value": "inactive"}]}
{"smiles": "CC1(C)O[C@@](C)(c2ccc(C(=O)O)cc2O)[C@H](O)C[C@@H]1O", "note": "(relative stereo)", "values": [{"measurement": "Activity", "setting": "HT-1080 [1]", "value": "inactive"}, {"measurement": "Activity", "setting": "CCRF-CEM [2]", "value": "inactive"}, {"measurement": "Activity", "setting": "[3]", "value": "Active"}, {"measurement": "Activity", "setting": "CCRF-CEM [4]", "value": "inactive"}]}
{"smiles": "CC1(C)O[C@@](C)(c2ccc(C(=O)O)cc2O)C[C@H](O)[C@H]1O", "note": "(relative stereo)", "values": [{"measurement": "Activity", "setting": "HT-1080 [1]", "value": "inactive"}, {"measurement": "Activity", "setting": "CCRF-CEM [2]", "value": "inactive"}, {"measurement": "Activity", "setting": "[3]", "value": "Active"}, {"measurement": "Activity", "setting": "CCRF-CEM [4]", "value": "inactive"}]}
{"smiles": "CC(=O)OCC(C)(O)CCCC(C)(O)c1ccc(C(=O)O)cc1O", "note": "(stereo not given)", "values": [{"measurement": "Activity", "setting": "HT-1080 [1]", "value": "inactive"}, {"measurement": "Activity", "setting": "CCRF-CEM [2]", "value": "inactive"}, {"measurement": "Activity", "setting": "[3]", "value": "Active"}, {"measurement": "Activity", "setting": "CCRF-CEM [4]", "value": "inactive"}]}
{"smiles": "Cc1cccc(O)c1-c1cc(O)c(C)c(=O)o1", "values": [{"measurement": "Activity", "setting": "HT-1080 [1]", "value": "inactive"}, {"measurement": "Activity", "setting": "CCRF-CEM [2]", "value": "inactive"}, {"measurement": "Activity", "setting": "[3]", "value": "Active"}, {"measurement": "Activity", "setting": "CCRF-CEM [4]", "value": "inactive"}]}
{"smiles": "CC(CCCC(C)(O)c1ccc(C(=O)O)cc1O)C(=O)O", "note": "(stereo not given)", "values": [{"measurement": "Activity", "setting": "HT-1080 [1]", "value": "inactive"}, {"measurement": "Activity", "setting": "CCRF-CEM [2]", "value": "inactive"}, {"measurement": "Activity", "setting": "[3]", "value": "Active"}, {"measurement": "Activity", "setting": "CCRF-CEM [4]", "value": "inactive"}]}
{"smiles": "CCOC(=O)c1ccc(NC2CCCCC2)c(N)c1", "values": [{"measurement": "Activity", "setting": "[3]", "value": "Active"}, {"measurement": "Activity", "setting": "HT-1080 [6]", "value": "Active"}]}
{"smiles": "C[C@]1(c2ccc(C(=O)O)cc2O)CC[C@H](O)[C@](C)(CO)O1", "note": "(relative stereo)", "values": [{"measurement": "Activity", "setting": "HT-1080 [1]", "value": "inactive"}, {"measurement": "Activity", "setting": "CCRF-CEM [2]", "value": "inactive"}, {"measurement": "Activity", "setting": "[3]", "value": "Active"}, {"measurement": "Activity", "setting": "CCRF-CEM [4]", "value": "inactive"}]}
{"smiles": "C/C(=C\\CCC(C)(O)CO)c1ccc(C(=O)O)cc1O", "note": "(stereo not given)", "values": [{"measurement": "Activity", "setting": "HT-1080 [1]", "value": "inactive"}, {"measurement": "Activity", "setting": "CCRF-CEM [2]", "value": "inactive"}, {"measurement": "EC50", "setting": "HT-1080 [7]", "value": 2100, "unit": "nM"}, {"measurement": "EC50", "setting": "HT-1080 [8]", "value": 3400, "unit": "nM"}, {"measurement": "Activity", "setting": "[3]", "value": "Active"}, {"measurement": "Activity", "setting": "CCRF-CEM [4]", "value": "inactive"}, {"measurement": "Activity", "setting": "CCRF-CEM [9]", "value": "Active"}, {"measurement": "Activity", "setting": "HT-1080 [10]", "value": "Active"}]}
{"smiles": "CC(=O)OC[C@@]1(C)CCC[C@](C)(c2ccc(C(=O)O)cc2O)O1", "note": "(relative stereo)", "values": [{"measurement": "Activity", "setting": "HT-1080 [1]", "value": "inactive"}, {"measurement": "Activity", "setting": "CCRF-CEM [2]", "value": "inactive"}, {"measurement": "Activity", "setting": "[3]", "value": "Active"}, {"measurement": "Activity", "setting": "CCRF-CEM [4]", "value": "inactive"}]}
